Entries after “also recorded” stand apart in the source; their conditions may differ. One block for each compound: values may come before it.
Experiments:
MRP-specific substrates = assay: screen for enhancement of toxicity of MRP substrates by NSAIDs; format: cell-based; conditions: summary statements
[1] = tested on: GST prepared from DLKP cells; assay: total GST assay with 1-chloro-2,4-dinitrobenzene; format: biochemical, human
Procedure: The other NSAIDs were tested in a total GST assay (Habig, W. H., and Jakoby, W. B., (1981); Methods Enzymol., 77: 218-231). Total cellular GST activity was assayed, using 1-chloro-2,4-dinitrobenzene as a substrate, according to the method of Habig, W. H., and Jakoby, W. B., (1981); supra. Due to spectrophotometric interference at 340 nm, caused by the majority of the NSAIDs, the assays were all performed at 360 nm, without any apparent effect on the rate of the control reaction The results are shown in Table 5.

[2] = tested on: murine and human cultured tumour cells; conditions: non-toxic concentrations of indomethacin; in vitro; cited from earlier work
DLKP cells = assay: Example 5 miniaturised in vitro cell toxicity assay, DLKP; format: cell-based, human
Procedure: For the monolayer cell lines miniaturised in vitro assays were used to determine drug toxicity. On Day I cells were seeded at 1×10^3 cells/well in a 96-well plate and left to attach overnight. Drug was added on Day 2, and the assay was terminated on Day 7. Cell number was then evaluated by using one of two colorimetric end-point […]: the acid phosphatase assay (Martin, A., and Clynes, M. (1991); In vitro Cell and Development Biology, 27A: 183-184) or the crystal violet dye elution assay (Martin, A., and Clynes, M. (1993); Cytotechnology, 11:49-58). All assays were performed in triplicate.

MRP pump = biological target: T1, MRP pump (Homo sapiens, UniProt P33527); assay: ATP-dependent transport of [3H]LTC4 into inside-out plasma membrane vesicles from HL60ADR cells; format: biochemical; conditions: for MRP-pump inhibitory activity: conclusion from Table 4
T1 construct: inside-out plasma membrane vesicles prepared from HL60ADR cells; endogenous in cells; host or cells: HL60ADR cells (plasma membrane vesicles)
T1 sequence (P33527 whole entry): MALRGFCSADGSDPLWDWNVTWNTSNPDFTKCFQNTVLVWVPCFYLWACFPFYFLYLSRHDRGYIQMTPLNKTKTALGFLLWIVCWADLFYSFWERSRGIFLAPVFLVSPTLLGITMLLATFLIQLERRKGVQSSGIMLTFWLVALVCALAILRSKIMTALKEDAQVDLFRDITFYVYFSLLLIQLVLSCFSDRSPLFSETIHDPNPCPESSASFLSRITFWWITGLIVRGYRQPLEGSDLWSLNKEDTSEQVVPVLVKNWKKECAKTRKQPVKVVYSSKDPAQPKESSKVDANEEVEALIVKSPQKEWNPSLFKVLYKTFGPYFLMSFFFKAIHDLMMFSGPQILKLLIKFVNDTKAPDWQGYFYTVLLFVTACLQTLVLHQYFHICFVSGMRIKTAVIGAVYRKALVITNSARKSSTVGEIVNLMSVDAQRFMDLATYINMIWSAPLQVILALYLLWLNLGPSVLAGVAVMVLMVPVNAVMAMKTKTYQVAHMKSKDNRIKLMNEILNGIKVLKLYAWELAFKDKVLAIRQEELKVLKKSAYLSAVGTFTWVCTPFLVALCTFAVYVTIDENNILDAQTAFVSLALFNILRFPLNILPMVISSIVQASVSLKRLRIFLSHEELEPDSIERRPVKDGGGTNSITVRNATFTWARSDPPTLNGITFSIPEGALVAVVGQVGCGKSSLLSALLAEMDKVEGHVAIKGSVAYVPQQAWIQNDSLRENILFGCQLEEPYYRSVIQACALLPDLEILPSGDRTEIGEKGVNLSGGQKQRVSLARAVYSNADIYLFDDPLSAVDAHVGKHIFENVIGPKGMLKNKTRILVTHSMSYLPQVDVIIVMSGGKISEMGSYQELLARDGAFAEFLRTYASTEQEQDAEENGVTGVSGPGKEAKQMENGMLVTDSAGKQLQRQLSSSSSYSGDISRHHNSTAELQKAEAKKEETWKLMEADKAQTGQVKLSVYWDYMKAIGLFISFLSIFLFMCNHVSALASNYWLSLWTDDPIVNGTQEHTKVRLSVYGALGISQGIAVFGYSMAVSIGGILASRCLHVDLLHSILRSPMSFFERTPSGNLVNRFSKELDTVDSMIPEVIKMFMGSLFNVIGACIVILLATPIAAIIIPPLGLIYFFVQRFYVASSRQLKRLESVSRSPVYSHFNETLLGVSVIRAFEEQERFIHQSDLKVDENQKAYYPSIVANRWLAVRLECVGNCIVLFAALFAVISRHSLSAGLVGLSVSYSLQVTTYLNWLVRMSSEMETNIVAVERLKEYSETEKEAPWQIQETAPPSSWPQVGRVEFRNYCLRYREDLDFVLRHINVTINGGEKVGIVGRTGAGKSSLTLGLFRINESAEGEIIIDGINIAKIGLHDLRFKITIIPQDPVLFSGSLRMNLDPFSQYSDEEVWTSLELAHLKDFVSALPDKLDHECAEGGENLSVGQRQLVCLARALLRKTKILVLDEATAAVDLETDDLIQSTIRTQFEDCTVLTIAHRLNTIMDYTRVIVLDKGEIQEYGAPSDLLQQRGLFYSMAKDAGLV
Procedure: To determine if the NSAIDs were acting directly on the MRP pump the uptake of [^3H]LTC4 into inside-out plasma membrane vesicles prepared from HL60ADR cells was examined using a rapid filtration procedure (Ishikawa,T., et al. (1994); J. Biol. Chem. 269 (46); 29085-29093). ATP-dependent transport of [^3H]LTC4 into the membrane vesicles was measured by a rapid filtration method using a Millipore sampling manifold. The membrane vesicles were thawed at 37° C. before use and kept on ice. The reaction components consisted of 0.25 M sucrose/10 mM Tris.HCl pH 7.4/1 mM ATP/10 mM MgCl2/10 mM creatine phosphate/ 110 μg/ml creatine kinase and 10 nM [^3H]LTC4, with 50 μg of the inside-out vesicle preparation, in a final volume of 110 μl. This suspension was incubated at 37° C., with gentle mixing, and aliquots, 20 μl, were taken at the indicated points. Those aliquots were diluted in 1 ml of ice-cold incubation buffer before being applied to 0.22 μm Millipore GSWP nitrocellulose filters, pre-soaked in ice-cold incubation buffer, under suction. The filters were subsequently washed with 3 ml ice-cold incubation buffer, and absorbed radioactivity was measured using a scintillation counter (Beckman). In control experiments ATP was replaced with 5μ-AMP to determine the ATP-dependent transport.

A549 cell line = assay: miniaturised in vitro colorimetric cell survival assay (acid phosphatase end-point), A549; format: cell-based, human; conditions: alone or + Adriamycin 40 ng/ml
Procedure: All the results presented in this Example for the DLKP, A549 and OAW42-SR cell lines were derived using the same miniaturised in vitro calorimetric assay system. On Day 1 of the assay 1000 cells/well/100 μl were plated into 96-well plates. Cells were allowed to attach overnight and cell viability was visually assessed. […] NSAID plus chemotherapeutic drug) to be analysed were added onto the cells. The individual drugs were added separately in 50 μl quantities (4× stocks, to take into account the dilution effect of having 200 μl final volume in each well). The drugs were left on the cells for five further days (Day 7) and cell number was determined using the acid phosphatase end-point assay which uses p-nitrophenol phosphate as substrate (Martin, A. and Clynes, M. (1991) In Vitro Dev. Biol., 27A, 183-184). On Day 7 the culture medium was removed from the cells and they were washed once with phosphate buffered saline (PBS). […] After the incubation period 50 μl of 1N NaOH was added to each well to develop the colour. The plates were then read at 405 nm (reference 620 nm) on an ELISA plate-reader. […] All results are the cell survival means ±S.D. from a minimum of three experiments.

DLKP-A cell line = assay: miniaturised in vitro colorimetric cell survival assay, P-170 overexpressing DLKP-A; format: cell-based, human
Procedure: All the results presented in this Example for the DLKP, A549 and OAW42-SR cell lines were derived using the same miniaturised in vitro calorimetric assay system. On Day 1 of the assay 1000 cells/well/100 μl were plated into 96-well plates. Cells were allowed to attach overnight and cell viability was visually assessed. On Day 2 the two drugs (i.e. NSAID plus chemotherapeutic drug) to be analysed were added onto the cells. The individual drugs were added separately in 50 μl quantities (4× stocks, to take into account the dilution effect of having 200 μl final volume in each well). The drugs were left on the cells for five further days (Day 7) and cell number was determined using the acid phosphatase end-point assay which uses p-nitrophenol phosphate as substrate (Martin, A. and Clynes, M. (1991) In Vitro Dev. Biol., 27A, 183-184). On Day 7 the culture medium was removed from the cells and they were washed once with phosphate buffered saline (PBS). After washing, 100 μl of freshly prepared substrate-containing buffer (0.1% Triton X-100 in 0.1M sodium acetate, pH 5.5) was added to each well and the plates were left in an incubator at 37° C. for 2 h. After the incubation period 50 μl of 1N NaOH was added to each well to develop the colour. The plates were then read at 405 nm (reference 620 nm) on an ELISA plate-reader.
In the results given below the % cell survival in the drug-free control is 100%. All results are the cell survival means ±S.D. from a minimum of three experiments.
v) is an example of a positive NSAID plus a positive drug on a P-170 overexpressing cell line: DLKP-A;

[3] = read-out: % inhibition of transport of [3H]LTC4

MRP-pump inhibitory activity (MRP pump): have MRP-pump inhibitory activity
inhibition at 49 µM (MRP pump; [3]): 20%
inhibition at 98 µM (MRP pump; [3]): 70%
SMILES: COc1ccc2c(c1)c(CC(=O)O)c(C)n2C(=O)c1ccc(Cl)cc1 [Indomethacin, indomethacin]
enhancement of toxicity of MRP substrates (MRP-specific substrates): positive; also recorded: have been found to enhance the toxicity of MRP-specific substrates
% Inhibition of GST ([1]; 0.4 mM): 54%
enhancement of VP-16 sensitivity [2]: enhanced the VP-16 sensitivity of a variety of cancer cell lines
% cell survival (DLKP cells; Indomethacin 0.6 μg/ml, alone or + Teniposide 6.25 ng/ml): 102.06 ± 5.11%
% cell survival (DLKP cells; Indomethacin 1.25 μg/ml, alone or + Teniposide 6.25 ng/ml): 101.28 ± 5.12%
% cell survival (DLKP cells; Indomethacin 2.5 μg/ml, alone or + Teniposide 6.25 ng/ml): 96.18 ± 3.43%
% cell survival (A549 cell line; ix) Indomethacin 0.60 μg/ml): 92.38 ± 13.30%
% cell survival (A549 cell line; ix) Indomethacin 1.20 μg/ml): 87.54 ± 13.07%
% cell survival (A549 cell line; ix) Indomethacin 2.40 μg/ml): 92.18 ± 7.09%

inhibition at 45 µM (MRP pump; 45 μM): 25%
inhibition at 89 µM (MRP pump; 89 μM): 69%
MRP-pump inhibitory activity (MRP pump): have MRP-pump inhibitory activity
SMILES: CC1=C(CC(=O)O)c2cc(F)ccc2/C1=C\c1ccc([S+](C)[O-])cc1 (centres unmarked) [Sulindac, sulindac]
% cell survival (DLKP-A cell line; v) Sulindac 1.5 μg/ml, alone or + Vincristine 1.0 μg/ml): 108.9 ± 8.0%
% cell survival (DLKP-A cell line; v) Sulindac 3 μg/ml, alone or + Vincristine 1.0 μg/ml): 86.30 ± 13.7%
% cell survival (DLKP-A cell line; v) Sulindac alone (concentration not given) or Sulindac 6 μg/ml + Vincristine 1.0 μg/ml): 105.7 ± 5.2%
enhancement of toxicity of MRP substrates (MRP-specific substrates): have been found to enhance the toxicity of MRP-specific substrates
% Inhibition of GST ([1]; 0.25 mM): 42.6%
% cell survival (DLKP cells; Sulindac 1.5 μg/ml, alone or + Epirubicin 1 ng/ml): 99.92 ± 3.3%
% cell survival (DLKP cells; Sulindac 3.0 μg/ml, alone or + Epirubicin 1 ng/ml): 100.29 ± 3.2%
% cell survival (DLKP cells; Sulindac 6.0 μg/ml, alone or + Epirubicin 1 ng/ml): 100.07 ± 3.6%
% cell survival (A549 cell line; xi) Sulindac 1.50 μg/ml): 100.00 ± 13.20%
% cell survival (A549 cell line; xi) Sulindac 3.20 μg/ml): 101.00 ± 12.14%
% cell survival (A549 cell line; xi) Sulindac 6.30 μg/ml): 96.01 ± 5.36%

Source: patent US6413937B1, “Combinations for use in increasing the potency of a substrate for multidrug resistance related protein” (Dublin City University and Enterprise Ireland, priority 1996, dated 2002)
